Measured values reported in patent US9533946B1, “N-carbamoylputrescine to enhance muscle protein synthesis” (CITRAGE, priority 2016, dated 2017).
Marks after values point to notes of the source that are not given here.

How the values were obtained:
[1] = system: soleus (rich in type I fibres); experiment: Soleus amino acid content after NCP-supplemented diet in rats; format: in vivo, Sprague-Dawley rats; parameters: Soleus Serine content / Soleus Asparagine content / Soleus Glutamate content / Soleus Glycine content / Soleus Citrulline content / Soleus Valine content / Soleus Isoleucine content / Soleus Leucine content / Soleus Tyrosine content / Soleus Phenylalanine content / Soleus Ornithine content / Soleus Histidine content / Soleus Lysine content / Soleus Arginine content / Soleus Proline content / Soleus Taurine content / Soleus Aspartate content / Soleus Threonine content: unit not given here
Protocol: (§1) Eight-week old Sprague-Dawley rats (Charles Rivers, Lyon, France) were used. They were placed in individual cages and acclimatized for two weeks to our animal facility. During this period they received standard rodent chow (A04, UAR, Villemoisson-sur-Orge, France) and water ad libitum.
After acclimatization twenty eight-month old rats were randomized into three groups in order to receive for two weeks a standard diet either alone (n=6; control group) or supplemented with NCP either 5 mg/kg/d (n=7, […]; […]). Their weight, behaviour and mortality were monitored throughout the feeding period.
(§2) At the end of the feeding period, the rats, in the fasted state, were anesthetized by isoflurane inhalation and euthanized by decapitation.
(§3) Mixed blood was collected onto heparinized tubes and rapidly centrifuged. The liver was immediately removed and weighed, and a sample was cut off, frozen in liquid nitrogen, and stored at −80° C. until analysis. For the jejunum and ileum, the intestine was washed with cold NaCl (0.9%) and reverted. Thereafter the intestinal mucosa was scraped, rapidly frozen in liquid nitrogen, and stored at −80° C. until analysis. Two muscles of the hindlimb, tibialis (rich in type II fibres) and soleus (rich in type I fibres), and the right kidney were rapidly removed, weighed, frozen in liquid nitrogen, and stored at −80° C. until analysis. Body composition was assessed by dissection and lean mass (carcass), visceral fat mass, sub-cutaneous fat mass (subcutaneous fat and skin) and mass of the viscera were determined.
(§4) Biological parameters studied were: • in tissues: NCP, protein and amino acid contents • in plasma: amino acids, liver function tests (plasma aspartate aminotransferase, alanine aminotransferase, alkaline phosphatase, and bilirubin), muscle enzymes (plasma creatine kinase, and lactate dehydrogenase), plasma electrolytes (sodium, potassium, chloride, bicarbonates), total protein, urea, creatinine, calcium, phosphate, magnesium, uric acid, glucose, cholesterol and triglycerides. Results General Effects of N-carbamoyl Putrescine

[2] = system: soleus (rich in type I fibres); experiment: Soleus protein content after NCP-supplemented diet in rats; format: in vivo, Sprague-Dawley rats
Protocol: as §1
(§5) After acclimatization twenty eight-month old rats were randomized into three groups in order to receive for two weeks a standard diet either alone (n=6; control group) or supplemented with NCP either 5 mg/kg/d (n=7, NCP5 group) or 50 mg/kg/d (n=7; NCP50 group). Their weight, behaviour and mortality were monitored throughout the feeding period.
as §2, §3
as §4, with “Results General Effects of N-carbamoyl Putrescine” left out

[3] = General effects of NCP-supplemented diet in rats (weight, behaviour, mortality, body composition); format: in vivo; details: for Initial weight: n = 7, before feeding period, mean ± SD; for Daily weight gain / Final weight / Weight gain: n = 7, mean ± SD
Protocol: as §1, §5, §2, §3

[4] = Plasma biological parameters after NCP-supplemented diet in rats; format: in vivo
Protocol: as §1, §5, §2, §3
as §4, with “Results General Effects of N-carbamoyl Putrescine” left out

[5] = system: liver, kidney, tibialis, and jejunal and ileal mucosa; experiment: Protein contents of other tissues after NCP-supplemented diet in rats; format: in vivo, Sprague-Dawley rats; details: between the three groups
Protocol: as §1, §5, §2
as §3, with “Two muscles of the hindlimb, tibialis (rich in type II fibres) and soleus (rich in type I fibres), and the right kidney were rapidly removed, weighed, frozen in liquid nitrogen, and stored at −80° C. until analysis.” left out, “determined. […]” for “determined.”

[6] = rats, NCP 5 mg/kg/d in diet, two weeks
[7] = rats, NCP 50 mg/kg/d in diet, two weeks
[8] = rats, NCP 5 or 50 mg/kg/d in diet, two weeks

NCCCCNC(N)=O [NCP, 1-(4-aminobutyl) urea]
Soleus Alanine content ([1]; NCP 5 mg/kg, n = 7, mean ± SD): 1735 ± 385^ab μmol/g
Soleus Arginine content ([1]; NCP 5 mg/kg, n = 7, mean ± SD): 381 ± 115
Soleus Asparagine content ([1]; NCP 5 mg/kg, n = 7, mean ± SD): 519 ± 106
Soleus Aspartate content ([1]; NCP 5 mg/kg, n = 7, mean ± SD): 4195 ± 703
Soleus Citrulline content ([1]; NCP 5 mg/kg, n = 7, mean ± SD): 351 ± 53
Soleus Glutamate content ([1]; NCP 5 mg/kg, n = 7, mean ± SD): 3753 ± 684
Soleus Glutamine content ([1]; NCP 5 mg/kg, n = 7, mean ± SD): 7605 ± 1016^ab μmol/g
Soleus Glycine content ([1]; NCP 5 mg/kg, n = 7, mean ± SD): 1932 ± 516
Soleus Histidine content ([1]; NCP 5 mg/kg, n = 7, mean ± SD): 415 ± 50^a μmol/g
Soleus Isoleucine content ([1]; NCP 5 mg/kg, n = 7, mean ± SD): 83 ± 17
Soleus Leucine content ([1]; NCP 5 mg/kg, n = 7, mean ± SD): 103 ± 23
Soleus Lysine content ([1]; NCP 5 mg/kg, n = 7, mean ± SD): 933 ± 222
Soleus Ornithine content ([1]; NCP 5 mg/kg, n = 7, mean ± SD): 75 ± 12
Soleus Phenylalanine content ([1]; NCP 5 mg/kg, n = 7, mean ± SD): 75 ± 19
Soleus Proline content ([1]; NCP 5 mg/kg, n = 7, mean ± SD): 196 ± 42
Soleus Serine content ([1]; NCP 5 mg/kg, n = 7, mean ± SD): 1933 ± 384
Soleus Taurine content ([1]; NCP 5 mg/kg, n = 7, mean ± SD): 23882 ± 2585
Soleus Threonine content ([1]; NCP 5 mg/kg, n = 7, mean ± SD): 512 ± 109
Soleus Tyrosine content ([1]; NCP 5 mg/kg, n = 7, mean ± SD): 106 ± 15
Soleus Valine content ([1]; NCP 5 mg/kg, n = 7, mean ± SD): 182 ± 22
Soleus Alanine content ([1]; NCP 50 mg/kg, n = 6, mean ± SD): 2025 ± 182^b μmol/g
Soleus Arginine content ([1]; NCP 50 mg/kg, n = 6, mean ± SD): 395 ± 62
Soleus Asparagine content ([1]; NCP 50 mg/kg, n = 6, mean ± SD): 538 ± 124
Soleus Aspartate content ([1]; NCP 50 mg/kg, n = 6, mean ± SD): 4742 ± 1443
Soleus Citrulline content ([1]; NCP 50 mg/kg, n = 6, mean ± SD): 379 ± 65
Soleus Glutamate content ([1]; NCP 50 mg/kg, n = 6, mean ± SD): 4074 ± 390
Soleus Glutamine content ([1]; NCP 50 mg/kg, n = 6, mean ± SD): 8547 ± 988^b μmol/g
Soleus Glycine content ([1]; NCP 50 mg/kg, n = 6, mean ± SD): 2145 ± 153
Soleus Histidine content ([1]; NCP 50 mg/kg, n = 6, mean ± SD): 494 ± 6
Soleus Isoleucine content ([1]; NCP 50 mg/kg, n = 6, mean ± SD): 91 ± 22
Soleus Leucine content ([1]; NCP 50 mg/kg, n = 6, mean ± SD): 113 ± 32
Soleus Lysine content ([1]; NCP 50 mg/kg, n = 6, mean ± SD): 1009 ± 168
Soleus Ornithine content ([1]; NCP 50 mg/kg, n = 6, mean ± SD): 74 ± 15
Soleus Phenylalanine content ([1]; NCP 50 mg/kg, n = 6, mean ± SD): 77 ± 11
Soleus Proline content ([1]; NCP 50 mg/kg, n = 6, mean ± SD): 199 ± 26
Soleus Serine content ([1]; NCP 50 mg/kg, n = 6, mean ± SD): 1964 ± 248
Soleus Taurine content ([1]; NCP 50 mg/kg, n = 6, mean ± SD): 25223 ± 1987
Soleus Threonine content ([1]; NCP 50 mg/kg, n = 6, mean ± SD): 571 ± 67
Soleus Tyrosine content ([1]; NCP 50 mg/kg, n = 6, mean ± SD): 126 ± 21
Soleus Valine content ([1]; NCP 50 mg/kg, n = 6, mean ± SD): 194 ± 24
concentration of Glutamine, alanine and histidine in soleus muscle ([1]; with NCP administration, positive correlation of glutamine and alanine with dose (p=0.015, p=0.013)): significantly increased
protein level in soleus ([2]; NCP5 group (5 mg/kg/d, two weeks), control 12.7±1.8, p=0.018 vs control): 14.5±0.7 g/100 g
protein level in soleus vs control group ([2]; NCP5 vs control, p=0.018): higher
protein level in soleus ([2]; NCP50 group (50 mg/kg/d, two weeks), control 12.7±1.8): 14.0±0.8 g/100 g
side effects ([3]; mammals, after administration): no side effects were noticed
Initial weight ([3]; rats, NCP 5 mg/kg group): 264.9 ± 16 g
Daily weight gain [3, 6]: 3.44 ± 0.58 g/day
Final weight [3, 6]: 313.1 ± 18.1 g
Weight gain [3, 6]: 48.1 ± 8.1 g
Initial weight ([3]; rats, NCP 50 mg/kg group): 264.9 ± 8.2 g
Daily weight gain [3, 7]: 3.65 ± 0.62 g/day
Final weight [3, 7]: 316.1 ± 13.9 g
Weight gain [3, 7]: 51.2 ± 8.7 g
general behavior [3, 8]: No rats showed abnormal general behavior
weight gain compared to controls [3, 8]: no difference
body composition (lean mass, fat mass, mass of the viscera, liver mass) ([3]; rats, NCP 5 or 50 mg/kg/d vs control, data not shown): no difference between the groups
Plasma urea ([4]; NCP50 group vs NCP5, FIG. 1): higher
Plasma urea ([4]; the two NCP-supplemented groups compared to control rats): no difference
plasma electrolytes, hepatic and muscular enzymes, creatinine, glucose, cholesterol, triglycerides and uric acid levels ([4]; three groups (control, NCP5, NCP50), data not shown): No difference
liver, kidney, tibialis, and jejunal and ileal mucosa protein contents [5]: similar
